Experimental data published in ChEMBL document CHEMBL5126634, “Naturally Occurring Partially Reduced Perylenequinones from Fungi” (J Nat Prod, 2022).
pIC50: −log10 of the molar value. In brackets after ≈: the same amount, converted by molar mass.

Assays:
[1] = tested on: L5178Y; experiment: Cytotoxicity against mouse L5178Y cells assessed as cell growth inhibition; format: functional, cell-based
[2] = Cytotoxicity against human HeLa cells assessed as cell growth inhibition; format: toxicity, cell-based; conditions: read-out: ID50 (the source's name)
[3] = tested on: MCF7; experiment: Cytotoxicity against human MCF7 cells assessed as cell growth inhibition; format: functional, cell-based
[4] = tested on: HepG2; experiment: Cytotoxicity against human HepG2 cells assessed as cell growth inhibition; format: functional, cell-based
[5] = tested on: NCI-H460; experiment: Cytotoxicity against human NCI-H460 cells assessed as cell growth inhibition; format: functional, cell-based
[6] = tested on: SF-268; experiment: Cytotoxicity against human SF-268 cells assessed as cell growth inhibition; format: functional, cell-based
[7] = tested on: PC-3; experiment: Cytotoxicity against human PC-3 cells assessed as cell growth inhibition; format: functional, cell-based
[8] = target: Telomerase reverse transcriptase (Homo sapiens, UniProt O14746); experiment: Inhibition of human telomerase
[9] = tested on: Leishmania donovani; experiment: Antileishmanial activity against Leishmania donovani promastigotes assessed as parasite growth inhibition incubated for 72 hrs by Alamar blue assay; format: functional, organism-based
[10] = Cytotoxicity against African green monkey Vero cells assessed as cell growth inhibition incubated for 48 hrs by neutral red dye based assay; format: toxicity; conditions: African green monkey (Chlorocebus sabaeus)
[11] = tested on: Plasmodium falciparum; experiment: Antimalarial activity against chloroquine sensitive Plasmodium falciparum D6 assessed as parasite growth inhibition incubated for 72 hrs by Malstat reagent assay; format: functional, organism-based; conditions: D6, 72 h
[12] = tested on: Plasmodium falciparum; experiment: Antimalarial activity against chloroquine resistant Plasmodium falciparum W2 assessed as parasite growth inhibition incubated for 72 hrs by Malstat reagent assay; format: functional, organism-based; conditions: W2, 72 h
[13] = tested on: K562; experiment: Cytotoxicity against human K562 cells assessed as cell growth inhibition; format: functional, cell-based
[14] = tested on: SGC-7901; experiment: Cytotoxicity against human SGC-7901 cells assessed as cell growth inhibition; format: functional, cell-based
[15] = tested on: Bel-7402; experiment: Cytotoxicity against human Bel-7402 cells assessed as cell growth inhibition; format: functional, cell-based

Chain of Telomerase reverse transcriptase (O14746 whole entry): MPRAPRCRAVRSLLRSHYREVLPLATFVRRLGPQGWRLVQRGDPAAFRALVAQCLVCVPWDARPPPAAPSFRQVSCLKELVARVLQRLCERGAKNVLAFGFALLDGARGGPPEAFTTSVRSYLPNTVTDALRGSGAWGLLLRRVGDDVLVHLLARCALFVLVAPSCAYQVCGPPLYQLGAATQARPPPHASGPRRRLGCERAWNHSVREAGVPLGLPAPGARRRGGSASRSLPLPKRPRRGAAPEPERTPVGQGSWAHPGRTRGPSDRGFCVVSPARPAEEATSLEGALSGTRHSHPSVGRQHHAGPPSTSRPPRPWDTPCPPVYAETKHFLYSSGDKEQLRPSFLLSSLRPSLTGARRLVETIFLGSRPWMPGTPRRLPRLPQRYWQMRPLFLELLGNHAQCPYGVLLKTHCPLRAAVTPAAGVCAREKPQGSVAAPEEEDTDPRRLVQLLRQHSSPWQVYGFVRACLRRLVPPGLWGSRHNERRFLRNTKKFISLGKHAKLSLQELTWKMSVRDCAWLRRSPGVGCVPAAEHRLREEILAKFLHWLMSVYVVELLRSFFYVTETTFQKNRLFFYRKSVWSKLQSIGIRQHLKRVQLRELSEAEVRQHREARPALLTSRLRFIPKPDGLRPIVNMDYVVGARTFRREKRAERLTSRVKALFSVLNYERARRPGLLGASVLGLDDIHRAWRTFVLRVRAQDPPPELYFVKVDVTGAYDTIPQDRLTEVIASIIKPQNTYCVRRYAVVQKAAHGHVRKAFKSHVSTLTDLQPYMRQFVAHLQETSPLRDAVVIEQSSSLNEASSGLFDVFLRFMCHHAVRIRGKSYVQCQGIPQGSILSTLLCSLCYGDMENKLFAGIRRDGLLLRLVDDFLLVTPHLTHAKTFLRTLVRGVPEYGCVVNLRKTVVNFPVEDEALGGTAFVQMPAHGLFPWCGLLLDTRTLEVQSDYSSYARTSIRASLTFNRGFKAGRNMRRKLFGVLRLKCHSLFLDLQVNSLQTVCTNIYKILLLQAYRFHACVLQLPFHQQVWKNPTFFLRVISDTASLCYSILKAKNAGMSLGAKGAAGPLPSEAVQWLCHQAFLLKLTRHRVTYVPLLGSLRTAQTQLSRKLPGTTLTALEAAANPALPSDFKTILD

SMILES: O=C1CC[C@]2(O)c3c(ccc(O)c31)-c1ccc(O)c3c1[C@H]2[C@H]1O[C@H]1C3=O
- pIC50 [1]: 5.21
- GI50 [2]: 0.5 µg/mL (≈ 1.43 µM)
- pIC50 [3]: 5.72
- pIC50 [4]: 5.72
- pIC50 [5]: 5.72
- pIC50 [6]: 5.72
- pIC50 [7]: 4.84

SMILES: O=C1C[C@H](O)[C@@H]2c3c(ccc(O)c31)-c1ccc(O)c3c1[C@@]2(O)C=CC3=O
- pIC50 [3]: 5.72
- pIC50 [4]: 5.72
- pIC50 [5]: 5.72
- pIC50 [6]: 5.72
- pIC50 [8]: 4.52

SMILES: O=C1C[C@@H](O)[C@]2(O)c3c(ccc(O)c31)-c1ccc(O)c3c1[C@@H]2[C@H]1O[C@@H]1[C@@H]3O
- IC50 [9]: 2.5 µg/mL (≈ 6.79 µM)

SMILES: O=C1C[C@H](O)[C@H]2c3c(ccc(O)c31)-c1ccc(O)c3c1[C@@]2(O)[C@H](O)CC3=O
- IC50 at 48 h [10]: 9.8 µM
- IC50 [9]: 4.4 µg/mL (≈ 11.9 µM)
- IC50 [11]: 4.2 µg/mL (≈ 11.4 µM)
- IC50 [12]: 3.6 µg/mL (≈ 9.77 µM)

SMILES: O=C1CC[C@]2(O)c3c(ccc(O)c31)-c1ccc(O)c3c1[C@H]2[C@H]1O[C@H]1[C@@H]3O
- IC50 [9]: 3.1 µg/mL (≈ 8.8 µM)

SMILES: O=C1C[C@H](O)[C@@H]2c3c(ccc(O)c31)-c1ccc(O)c3c1[C@@]2(O)[C@H](O)CC3=O
- pIC50 [13]: 4.27

SMILES: CO[C@H]1CC(=O)c2c(O)ccc3c2[C@@]1(O)[C@@H]1c2c-3ccc(O)c2[C@@H](O)[C@@H]2O[C@@H]21
- IC50 at 48 h [10]: 12.5 µM
- IC50 [9]: 1.4 µg/mL (≈ 3.66 µM)
- IC50 [11]: 3.2 µg/mL (≈ 8.37 µM)
- IC50 [12]: 2.5 µg/mL (≈ 6.54 µM)

SMILES: O=C1CCc2c3c4c(cc(O)cc4c4ccc(O)c1c24)[C@H](O)CC3
- pIC50 [13]: 4.08
- pIC50 [14]: 4.56
- pIC50 [15]: 4.39

SMILES: O=C1C[C@H](O)[C@@H]2c3c(ccc(O)c31)-c1ccc(O)c3c1[C@@]2(O)CCC3=O [ALTERTOXIN I]
- GI50 [2]: 20 µg/mL (≈ 56.8 µM)
